Results: US6420372B1, “Febrifugine, isofebrifugine and method for producing the same” (Japan Science and Technology Corporation, priority 1999, dated 2002)
pEC50: −log10 of the molar value. Read-outs that look alike come from different tables or passages of the source.

Key:
[1] = tested on: P. falciparum FCR-3 strain (ATCC 30932); test: Screening of malarial protozoan growth inhibition (culture assay); type: cell-based; conditions: for pEC50: Plasmodium falciparum, Erythrocyte, read-out: P. falciparum EC50; for Ratio of Selective Toxicity for Malarial Protozoan <chemotherapeutic coefficient>: [EC50 for mouse FM3A cell]/[EC50 for tropical fever malarial protozoan]; for malarial protozoan growth inhibiting activity (in words): summary of Table 1
Experimental: In this experiment, P. falciparum FCR-3 strain (ATCC 30932) was employed as the tropical fever malarial protozoan. In order to verify the effect of the commercially available anti-malarial agent chloroquin on resistant strains, a chloroquin resistant malarial protozoan of the P. falciparum K1 strain was employed. The medium used in this experiment was a filter-sterilized RPMI1640 medium which was adjusted to pH 7.4 and supplemented with 10% human serum. The malarial protozoan was cultured under 5% O2, 4% CO2 and […] at 36.5° C. The hematocrit level (% volume of erythrocyte in erythrocyte suspension) was adjusted to 5% for use. The initial infection rate with the tropical fever malarial protozoan at the beginning of the cultivation was 0.1%. The cultivation was performed using a 24-well cultivation plate, replacing the culture medium everyday, and subcultured at an infection rate of 4%. The infection rate was obtained by making a thin layer smear preparation, which was subjected to Giemsa staining or Diff-Qick staining, and observed microscopically (immersed in oil, magnified to ×1000) after which the malarial protozoan infection rate was determined using the following equation.
Malarial protozoan infection rate=[(number of infected erythrocyte)/(total number of erythrocyte)]×100 The cultured malarial protozoan-infected erythrocyte was collected by centrifugation, and washed with a serum-supplemented medium, after which a non-infected erythrocyte was added to adjust the initial infection rate to 0.3%. At this time, the hematocrit rate was 3%. The sample used in the test was obtained by dissolving in sterilized water, dimethylformamide (DMF), or dimethylsulfoxide (DMSO) to create samples of desired concentration.
5 to 10 μl of the sample were added to a 24-well cultivation plate. The samples were tested in duplicates or triplicates. As a control, 10 μl/well of sterilized water, DMF or DMSO was employed.
Subsequently, to the above medium, 990 to 995 μl of the tropical fever malarial protozoan culture medium previously prepared were added by gentle pipetting to create a uniform suspension. The culture plate was incubated for 72 hours in a CO2—O2—N2 (5%, 5%, 90%) incubator, after which thin layer smear preparations of each well was made, stained, and observed microscopically, to determine the infection rate together with the infection rate for the control.
From the malarial protozoan infection rate obtained by the method described above, the reproductive rate was calculated, whereby obtaining the 50% growth inhibition concentration (EC50) for malarial protozoan.
Reproductive rate={([b]−[a])/([c]−[a])}×100 a: initial infection rate b: infection rate with sample added c: infection rate without sample (Control)

[2] = tested on: mouse breast cancer FM3A cells (F28-7 strain); test: Mouse FM3A cell growth inhibition test; type: cell-based; conditions: read-out: FM3A EC50
Experimental: An F28-7 strain, a wild cell strain derived from mouse breast cancer FM3A cells was employed. A medium was prepared by supplementing an ES medium with 2% inactivated fetal calf serum, and incubated at 37° C. under 5% CO2. Under these conditions, the doubling time of the FM3A cell was about 12 hours.
Following preincubation, the cells in logarithmic growth phase were diluted with the medium to 5×10^4 cells/ml. The sample used was one prepared for the anti-malarial activity test of the malaria protozoan. 5 to 10 μl of the samples were added to a 24-well cultivation plate (final concentration after addition of medium was 1×10^−4 to 1×10^−6). The compounds were tested in duplicates or triplicates, and wells containing 10 μl of sterilized water, DMF or DMSO were also prepared as a control. Subsequently, 990 to 995 μl of the cultured cell suspension previously prepared were added by gentle pipetting, and uniformly suspended in the medium. After incubating for 48 hours, the number of cells in each well was counted using SELF CONTROLLER (CC-108, Toa Medical Electrics) and the reproductive rate was calculated by using the following equation.
Reproductive rate (%)={([C]−[A])/([B]−[A])}×100
A: initial number of cells
B: number of control cell after 48 hours
C: number of cells after 48 hours from sample addition
The cell growth inhibition activity was calculated from the number of cells in the well containing the sample and the number of cells in the control. From the results thus obtained, the cytotoxicity of each sample was evaluated and represented as the cell growth inhibition concentration (EC50). The EC50 value is the concentration (expressed as molar concentration) of a sample necessary to inhibit the reproductive rate of the control by 50%, wherein the reproductive rate or the rate of malarial protozoan infection for the control in which samples are not added to the medium of malarial protozoan or FM3A cell, is regarded as 100%.

Compound | pEC50 ([1]; 72 h) | Ratio of Selective Toxicity for Malarial Protozoan <chemotherapeutic coefficient> [1] | malarial protozoan growth inhibiting activity (in words) [1] | pEC50 ([2]; 48 h) | pEC50 ([1]; 50% growth inhibition concentration, infected erythrocytes, 72 hours incubation, infection rate by stained smear) | pEC50 ([2]; cell growth inhibition concentration (cytotoxicity), 48 hours incubation, cell count)
O=C(C[C@H]1NCCC[C@@H]1O)Cn1cnc2ccccc2c1=O [A, (2′R, 3′S)-febrifugine] | 9.52 | 2667 | selective malarial protozoan growth inhibiting activity | 6.10 |  | 
O=c1c2ccccc2ncn1CC1(O)C[C@@H]2NCCC[C@@H]2O1 (stereo partly drawn) [B, (2′S, 3′S)-isofebrifugine] |  | 2895 | selective malarial protozoan growth inhibiting activity |  | 10.12 | 6.66
O=C(C[C@@H]1NCCC[C@H]1O)Cn1cnc2ccccc2c1=O [Formula A0, reference compound] | 6.72 | 105 |  | 4.70 |  | 
O=c1c2ccccc2ncn1CC1(O)C[C@@H]2NCCC[C@H]2O1 (some centres unmarked) [Formula B0, reference compound] | 6.70 | 110 |  | 4.66 |  | 
